# Results taken from paper PMC12038849, “Identification and Characterization of a Leoligin-Inspired Synthetic Lignan as a TGR5 Agonist” (Journal of Natural Products, 2025).
# Target: T1, G-protein coupled bile acid receptor 1 (GPBAR1 or TGR5) (Homo sapiens, UniProt Q8TDU6)
# T1 construct: human TGR5-ORF (NM_170699), stably expressed in HEK EPAC cells
# T1 sequence (Q8TDU6 1-330): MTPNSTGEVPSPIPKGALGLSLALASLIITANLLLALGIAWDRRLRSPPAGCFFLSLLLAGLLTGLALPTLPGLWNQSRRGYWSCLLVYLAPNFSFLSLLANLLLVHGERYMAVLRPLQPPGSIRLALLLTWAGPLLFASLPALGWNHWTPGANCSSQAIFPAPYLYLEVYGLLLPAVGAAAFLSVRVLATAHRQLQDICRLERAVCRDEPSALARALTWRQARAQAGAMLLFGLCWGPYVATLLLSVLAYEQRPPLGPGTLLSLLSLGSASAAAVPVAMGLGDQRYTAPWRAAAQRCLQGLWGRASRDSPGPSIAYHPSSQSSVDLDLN
# Assay: EPAC FRET cAMP accumulation assay in TGR5-expressing HEK cells; inactive in non-TGR5 cells
# Type: cell-based
smiles,measurement,value
"C/C=C(/C)C(=O)OCC[C@H]1[C@@H](Cc2ccc(OC)c(OC)c2)CO[C@@H]1c1ccc(OC)c(OC)c1 [compound 1, LT-188A]",EC50,23 µM
